# Laboratory results reported in patent US9999596B2 (priority 2004, dated 2018).
# Where two headings read alike, the source gives them in different places.
# Tests used:
# [1] = test system: human umbilical venular endothelial cells; conditions: cited from earlier work
# [2] = female, Fischer 344, rat, in vivo
# in vivo = conditions: female, Fischer 344, rat
# [3] = test system: A2780/AD (multidrug resistant) human ovarian carcinoma cells; assay: cells; assay type: cell-based; conditions: A2780AD, 48 h, read-out: IC50 (nM) A2780/AD
# [4] = test system: A2780 (sensitive) human ovarian carcinoma cells; assay: cells; assay type: cell-based; conditions: A2780, 48 h, read-out: IC50 (nM) A2780
# Mat B-III tumors = assay: Pharmacodynamic tumor-growth delay study
# Text: Mat B-III cells were obtained from American Type Culture Collection (Rockville, Md.). The cells were maintained in culture in vitro in RMPI medium supplemented with 10% fetal bovine serum, 100 units/ml penicillin-streptomycin sulfate, 2% sodium bicarbonate and 1% non-essential amino acids.
# Female Fischer 344 rats (160-180 g) were purchased from Hilltop Laboratories (Scottdale, Pa.) and allowed to acclimate for one week. The rats were housed, two per cage and tagged to facilitate identification. Mat B-III cells grown in serum-containing medium were washed with phosphate buffer and trypsinized for 5 minutes. The cells were collected and centrifuged for 5 minutes. The cell pellet was resuspended in Dulbecco's phosphate buffer (DPBS) and centrifuged as above. This process was repeated three times. Finally the cell pellet (2×10^6 cells/ml) was resuspended and the cells were injected (0.5 ml=1×10^6 cells) subcutaneously into the back of the rats. The rats were weighed daily and examined for tumor development and distress. The tumor size was measured in two dimensions using calipers and the tumor mass was calculated as described in Equation 4.5.
# Once the tumors reached a size of approximately 1 cm^3, (500-1000 mg) the rats were randomized into five experimental groups. […] All treatments were administered s.c. in the vicinity of the tumor. The rats were monitored daily for weight loss, tumor growth, skin lesions, distress or ascites. Body weight loss and lethal toxicity were taken into account when evaluating the toxic effects induced by the drug treatment. […]
# Therefore, to adequately compare the various treatments, the rats were divided into two groups of 16 rats each based on the size of the tumors on day 10 following inoculation (small tumor group: size ˜500 mg and large tumor group: size ˜1000 mg). […] The dimensions of the tumors were measured prior to and post administration of the treatments in the case of the hydrogel groups to account for the volume of hydrogel.
structure (smiles),measurement,setting,value
"CC[C@@]1(O)C(=O)OCc2c1cc1n(c2=O)Cc2cc3ccccc3nc2-1 [CPT, Camptothecin]",growth of human umbilical venular endothelial cells in vitro,[1],inhibited the growth
"CC[C@@]1(O)C(=O)OCc2c1cc1n(c2=O)Cc2cc3c(CN(C)C)c(O)ccc3nc2-1 [TPT, 9-amino-dimethyl-10-hydroxycamptothecin]",MAT (mean absorption time),[2]; 10 mg/kg,10.44 h
same,Alpha,"[2]; iv, 10 mg/kg",0.84 h⁻¹
same,Cl,"[2]; iv, 10 mg/kg",444.59 mL/h
same,MRT,"[2]; iv, 10 mg/kg",3.92 h
same,Vz/F,"[2]; iv, 10 mg/kg",3552.68 mL
same,kel,"[2]; iv, 10 mg/kg",0.14 h⁻¹
same,dose fraction (F) that appeared in the systemic circulation,[2]; sc,92%
same,Vz,"[2]; sc, 10 mg/kg",5483.75 mL
same,kel,"[2]; sc, 10 mg/kg",0.10 h⁻¹
same,tmax,"[2]; sc, 10 mg/kg",1.56 h
same,AUC(0-inf),"in vivo; iv, 10 mg/kg",5910 ng·h/mL
same,AUC(0-t),"in vivo; iv, 10 mg/kg",5790 ng·h/mL
same,bioavailability,"in vivo; iv, 10 mg/kg",100%
same,AUC,"in vivo; iv, 10 mg/kg",5960 ng·h/mL
same,half-life,"in vivo; iv, 10 mg/kg, Alpha-t1/2",0.84 ± 0.07 h
same,clearance,"in vivo; iv, 10 mg/kg, Cl",7.55 mL/min
same,Cmax,"in vivo; iv, 10 mg/kg",4360 ng/mL
same,MRT,"in vivo; iv, 10 mg/kg",2.95 h
same,Vd,"in vivo; iv, 10 mg/kg, Vss",1.32 L
same,Vd,"in vivo; iv, 10 mg/kg, Vz",3.55 L
same,half-life,"in vivo; iv, 10 mg/kg, t1/2",6.16 ± 0.56 h
same,bioavailability,in vivo; sc,98.8%
same,AUC(0-inf),"in vivo; sc, 10 mg/kg",5380 ng·h/mL
same,AUC(0-t),"in vivo; sc, 10 mg/kg",4470 ng·h/mL
same,bioavailability,"in vivo; sc, 10 mg/kg",91.8%
same,AUC,"in vivo; sc, 10 mg/kg",5800 ± 894 ng·h/mL
same,Cmax,"in vivo; sc, 10 mg/kg",468 ± 177 ng/mL
same,half-life,"in vivo; sc, 10 mg/kg, Ka-t1/2",0.32 ± 0.05 h
same,MRT,"in vivo; sc, 10 mg/kg",13.4 h
same,Vd/F,"in vivo; sc, 10 mg/kg, Vss/F",6.07 L
same,Vd/F,"in vivo; sc, 10 mg/kg, Vz/F",5.97 L
same,half-life,"in vivo; sc, 10 mg/kg, t1/2",6.42 ± 1.99 h
same,tmax,"in vivo; sc, 10 mg/kg, tmax",2.67 h
same,growth of human umbilical venular endothelial cells in vitro,[1],inhibited the growth
same,IC50,[3],55.9 ± 2.67 nM
same,IC50,[4],25.3 ± 1.4 nM
same,"effect on tumor size, small tumor group","Mat B-III tumors; 5 mg/kg s.c., tumors ~500 mg, 16 days",very effective initially in reducing tumor size
same,"effect on tumor size, large tumor group","Mat B-III tumors; 5 mg/kg s.c., tumors ~1000 mg",initially effective
same,appearance of resected tumors,Mat B-III tumors; at completion of study,highly vascularized and firm
